Read-outs that look alike come from different tables or passages of the source.

The term IC50 denotes the point on the concentration scale where inhibition reaches its midpoint.

In the experiment the test system is Escherichia coli ATCC 25922. Put plainly: 50% growth inhibitory concentration (IC50) determination, Iso-Sensitest broth dilution. Type of experiment: cell-based. Conditions: strain Escherichia coli ATCC 25922, 10-point broth dilution, optical density at 600 nm over 16 h, read-out: Escherichia coli growth inhibition IC50. How it is done:
50% Growth Inhibitory Concentration (IC50) Determination
The in vitro antimicrobial activity of the compounds was determined according to the following procedure:
The assay used a 10-point Iso-Sensitest broth dilution method to measure quantitatively the in vitro
ATCC 25922, Acinetobacter baumannii ATCC 17961, Klebsiella pneumoniae ATCC 43816 and Staphylococcus aureus ATCC 29213.
Stock compounds in DMSO were serially twofold diluted (e.g. range from 50 to 0.097 μM final concentration) in 384 wells microtiter plates and inoculated with 50 μL of the bacterial suspension in Iso-
ell of 50 μL/well. Microtiter plates were incubated at 35±2° C.
Bacterial cell growth was determined with the measurement of optical density at λ=600 nm each 20 minutes over a time course of 16 h.
Growth inhibition was calculated during the logarithmic growth of the bacterial cells with
Table 1 provides the 50% growth inhibitory concentrations (IC50) in micromoles per liter of the compounds of present invention obtained against the strain Escherichia coli ATCC 25922.

Where [1] appears, read: Escherichia coli, ATCC25922, 16 h.

Regarding `N#Cc1cccc2c1CC(CN(CCN)CCC1CN(c3ccc4c(n3)NC(=O)CO4)C(=O)O1)C2` (stereo not drawn) [Example 233, 2-[[2-Aminoethyl-[2-[2-oxo-3-(3-oxo-4H-pyrido[3,2-b][1,4]oxazin-6-yl)-1,3-oxazolidin-5-yl]ethyl]amino]methyl]-2,3-dihydro-1H-indene-4-carbonitrile; formic acid], the IC50 under setting [1] is 942 nM.

Consider `NC(=O)COc1cc(F)c2c(c1)CC(CNCC[C@@H]1CN(c3cnc4c(n3)NC(=O)CO4)C(=O)O1)C2` (single isomer, unassigned; isomer a) [Example 381], for which the IC50 under setting [1] is 105 nM.

For `Cc1nc(OC[C@H](N)CO)c(C)c2c1CC(CNCCC1CN(c3ccc4c(n3)NC(=O)CO4)C(=O)O1)C2` (stereo partly drawn) [Example 234, 6-[5-[2-[[3-[(2R)-2-Amino-3-hydroxypropoxy]-1,4-dimethyl-6,7-dihydro-5H-cyclopenta[c]pyridin-6-yl]methylamino]ethyl]-2-oxo-1,3-oxazolidin-3-yl]-4H-pyrido[3,2-b][1,4]oxazin-3-one], the IC50 under setting [1] is 212 nM.

As to `NCCOc1ccc2c(c1Cl)CC(NCCCC1CN(c3ccc4c(n3)NC(=O)CO4)C(=O)O1)C2` (stereo not drawn) [Example 118, 6-[5-[3-[[5-(2-aminoethoxy)-4-chloro-2,3-dihydro-1H-inden-2-yl]amino]propyl]-2-oxo-1,3-oxazolidin-3-yl]-4H-pyrido[3,2-b][1,4]oxazin-3-one; formic acid], the IC50 under setting [1] was less than 97.7 nM.

As to `Cc1nc(Cl)nc2c1CC(CNCCC1CN(c3ccc4c(n3)NC(=O)CO4)C(=O)O1)C2` (stereo not drawn) [Example 385, 6-[5-[2-[(2-chloro-4-methyl-6,7-dihydro-5H-cyclopenta[d]pyrimidin-6-yl)methylamino]ethyl]-2-oxo-1,3-oxazolidin-3-yl]-4H-pyrido[3,2-b][1,4]oxazin-3-one], the IC50 under setting [1] came to 923 nM.

With `O=C1COc2ncc(N3CC(CC(O)CNC4Cc5cccc(F)c5C4)OC3=O)nc2N1` (single isomer, unassigned; isomer b) [Example 84, 6-[5-[3-[(4-fluoro-2,3-dihydro-1H-inden-2-yl)amino]-2-hydroxypropyl]-2-oxo-1,3-oxazolidin-3-yl]-4H-pyrazino[2,3-b][1,4]oxazin-3-one, Isomer B; formic acid], the IC50 was 217 nM.

In the case of `O=C1COc2ncc(-n3cc(CCNCC4Cc5cncc(F)c5C4)oc3=O)nc2N1` (stereo not drawn) [Example 372, 6-[5-[2-[(4-fluoro-6,7-dihydro-5H-cyclopenta[e]pyridin-6-yi)methylamino]ethyl]-2-oxo-1,3-oxazol-3-yl]-4H-pyrazino[2,3-b][1,4]oxazin-3-one], the half-inhibitory concentration (IC50) under setting [1] is less than 97.7 nM.

In the case of `NC1c2c(Cl)cccc2CC1CNCCC1CN(c2cnc3c(n2)NC(=O)CO3)C(=O)O1` (racemic) [Example 169, 6-[2-oxo-5-[2-[[rac-1,2-trans-1-amino-7-chloro-2,3-dihydro-1H-inden-2-yl]methylamino]ethyl]-1,3-oxazolidin-3-yl]-4H-pyrazino[2,3-b][1,4]oxazin-3-one], the IC50 under setting [1] was less than 97.7 nM.

Regarding `N#Cc1cc(OCc2cc[nH]n2)cc2c1CC(CNCCC1CN(c3cnc4c(n3)NC(=O)CO4)C(=O)O1)C2` (stereo not drawn) [Example 404, 2-[[2-[2-oxo-3-(3-oxo-4H-pyrazino[2,3-b][1,4]oxazin-6-yl)-1,3-oxazolidin-5-yl]ethylamino]methyl]-6-(1H-pyrazol-3-ylmethoxy)-2,3-dihydro-1H-indene-4-carbonitrile; formic acid], under setting [1], the IC50 is less than 97.7 nM.

As to `CC1(CCNCC2Cc3c(Cl)cccc3C2N)CN(c2cnc3c(n2)NC(=O)CO3)C(=O)O1` (racemic) [Example 375, 6-[5-methyl-2-oxo-5-[2-[(rac-1,2-trans-1-amino-4-chloro-2,3-dihydro-1H-inden-2-yl)methylamino]ethyl]-1,3-oxazolidin-3-yl]-4H-pyrazino[2,3-b][1,4]oxazin-3-one], the IC50 under setting [1] amounted to 351 nM.

`O=C1COc2ncc(N3CC(CCNCC4Cc5cc(OCCn6cnnn6)cc(F)c5C4)OC3=O)nc2N1` (stereo not drawn) [Example 347, 6-[5-[2-[[4-fluoro-6-[2-(tetrazol-1-yl)ethoxy]-2,3-dihydro-1H-inden-2-yl]methylamino]ethyl]-2-oxo-1,3-oxazolidin-3-yl]-4H-pyrazino[2,3-b][1,4]oxazin-3-one; formic acid]: the IC50 under setting [1] was 175 nM.

As for `Cc1ncc(F)c2c1CC(CNCCc1nn(-c3ccc4c(n3)NC(=O)CO4)c(=O)o1)C2` (stereo not drawn) [Example 68, 6-[5-[2-[(4-fluoro-1-methyl-6,7-dihydro-5H-cyclopenta[c]pyridin-6-yl)methylamino]ethyl]-2-oxo-1,3,4-oxadiazol-3-yl]-4H-pyrido[3,2-b][1,4]oxazin-3-one], under setting [1], the IC50 turned out to be 175 nM.

For the molecule `Cc1ncc(F)c2c1CC(CNCCc1nn(-c3ccc4c(c3)NC(=O)CO4)c(=O)o1)C2` (stereo not drawn) [Example 67, 6-[5-[2-[(4-fluoro-1-methyl-6,7-dihydro-5H-cyclopenta[c]pyridin-6-yl)methylamino]ethyl]-2-oxo-1,3,4-oxadiazol-3-yl]-4H-1,4-benzoxazin-3-one], under setting [1], the IC50 came to 249 nM.

As for `N#Cc1cc(OCC2CNC2)cc2c1CC(CNCCC1CN(c3ccc4c(n3)NC(=O)CO4)C(=O)O1)C2` (stereo not drawn) [Example 191, 6-(azetidin-3-ylmethoxy)-2-[[2-[2-oxo-3-(3-oxo-4H-pyrido[3,2-b][1,4]oxazin-6-yl)-1,3-oxazolidin-5-yl]ethylamino]methyl]-2,3-dihydro-1H-indene-4-carbonitrile; 2,2,2-trifluoroacetic acid], under setting [1], the IC50 worked out at 295 nM.

For `Cc1ncc(F)c2c1CC(N[C@H]1CC[C@]3(CC1)CN(c1cnc4c(n1)NC(=O)CO4)C(=O)O3)C2` (stereo partly drawn) [Example 297, trans-6-[8-[(4-fluoro-1-methyl-6,7-dihydro-5H-cyclopenta[c]pyridin-6-yl)amino]-2-oxo-1-oxa-3-azaspiro[4.5]decan-3-yl]-4H-pyrazino[2,3-b][1,4]oxazin-3-one; formic acid], the IC50 under setting [1] turned out to be 249 nM.

For the molecule `NC1c2cc(OCC3(N)CC3)cc(Cl)c2CC1CNCCC1CN(c2cnc3c(n2)NC(=O)CO3)C(=O)O1` (racemic) [Example 282, 6-[2-Oxo-5-[2-[[rac-1,2-trans-1-amino-6-[(1-aminocyclopropyl)methoxy]-4-chloro-2,3-dihydro-1H-inden-2-yl]methylamino]ethyl]-1,3-oxazolidin-3-yl]-4H-pyrazino[2,3-b][1,4]oxazin-3-one; formic acid], the 50% inhibitory concentration (IC50) under setting [1] is 374 nM.

With `N#Cc1cccc2c1CC(CN1CCC3(CN(c4ccc5c(n4)NC(=O)CO5)C(=O)O3)C(CN)C1)C2` (racemic) [Example 252, 2-[[rac-5,6-trans-6-(Aminomethyl)-2-oxo-3-(3-oxo-4H-pyrido[3,2-b][1,4]oxazin-6-yl)-1-oxa-3,8-diazaspiro[4.5]decan-8-yl]methyl]-2,3-dihydro-1H-indene-4-carbonitrile; formic acid], the IC50 turned out to be 156 nM.

Take `O=C1COc2ncc(N3CC(CCNCC4Cc5cc(OC6COC6)cc(F)c5C4)OC3=O)nc2N1` (stereo not drawn) [Example 323, 6-[5-[2-[[4-fluoro-6-(oxetan-3-yloxy)-2,3-dihydro-1H-inden-2-yl]methylamino]ethyl]-2-oxo-1,3-oxazolidin-3-yl]-4H-pyrazino [2,3-b] [1,4]oxazin-3-one]: the IC50 under setting [1] came to 250 nM.

In the case of `N#Cc1cc(OCCN)cc2c1CC(CNCCC1CN(c3ccc4c(n3)NC(=O)CO4)C(=O)O1)C2` (stereo not drawn) [Example 188, 6-(2-aminoethoxy)-2-[[2-[2-oxo-3-(3-oxo-4H-pyrido[3,2-b][1,4]oxazin-6-yl)-1,3-oxazolidin-5-yl]ethylamino]methyl]-2,3-dihydro-1H-indene-4-carbonitrile], the IC50 under setting [1] is less than 97.7 nM.

In the case of `O=C1COc2ccc(N3CC(CCCNC4Cc5cccc(F)c5C4)OC3=O)nc2N1` (stereo not drawn) [Example 8, 6-[5-[3-[(4-fluoro-2,3-dihydro-1H-inden-2-yl)amino]propyl]-2-oxo-1,3-oxazolidin-3-yl]-4H-pyrido[3,2-b][1,4]oxazin-3-one; formic acid], the IC50 under setting [1] came out at 167 nM.

Consider `N#Cc1cc(OCC2CCN2)cc2c1CC(CNCCC1CN(c3ccc4c(n3)NC(=O)CO4)C(=O)O1)C2` (stereo not drawn) [Example 187, 6-(azetidin-2-ylmethoxy)-2-[[2-[2-oxo-3-(3-oxo-4H-pyrido[3,2-b][1,4]oxazin-6-yl)-1,3-oxazolidin-5-yl]ethylamino]methyl]-2,3-dihydro-1H-indene-4-carbonitrile], for which the IC50 under setting [1] amounted to 121 nM.

For the molecule `O=C1COc2ncc(N3CC(CCNCC4Cc5cncc(F)c5C4)OC3=O)nc2N1` (stereo not drawn) [Example 287, 6-[5-[2-[(4-fluoro-6,7-dihydro-5H-cyclopenta[c]pyridin-6-yl)methylamino]ethyl]-2-oxo-1,3-oxazolidin-3-yl]-4H-pyrazino[2,3-b][1,4]oxazin-3-one], the IC50 under setting [1] is less than 97.7 nM.

For `Cc1ncc(F)c2c1CC(NC1CC(C3CN(c4cnc5c(n4)NC(=O)CO5)C(=O)O3)C1)C2` (single isomer, unassigned; isomer a) [Example 328, 6-[5-[3-[(4-fluoro-1-methyl-6,7-dihydro-5H-cyclopenta[c]pyridin-6-yl)amino]cyclobutyl]-2-oxo-1,3-oxazolidin-3-yl]-4H-pyrazino[2,3-b][1,4]oxazin-3-one, Isomer A], under setting [1], the IC50 is 885 nM.

With `N#Cc1cccc2c1CC(CNC1CCC3C(C1)OC(=O)N3c1ccc3c(n1)NC(=O)CO3)C2` (racemic) [Example 99, 2-[[[rac-3a,7a-cis-6,7a-trans-2-oxo-3-(3-oxo-4H-pyrido[3,2-b][1,4]oxazin-6-yl)-3a,4,5,6,7,7a-hexahydro-1,3-benzoxazol-6-yl]amino]methyl]-2,3-dihydro-1H-indene-4-carbonitrile; formic acid], the IC50 amounted to 516 nM.
